Experimental data: patent US20250296971A1, “GASTRIC INHIBITORY PEPTIDE RECEPTOR LIGANDS” (priority 2021, published 2025)
*1 amine or outer side, *2 acyl side, *3 side chain or, on linkers, in order; H or OH if unused. Where a SMILES comes first, the peptide text is derived from it. Bridges are numbered along the chain shown (N, C = ends). [ ]: non-standard residue; d: D form. The star is where a group is joined. ξ: configuration not given here. X5 = NC(=O)[C@H](CCCCNC(=O)CN1CCN(CC(=O)O)CCN(CC(=O)O)CCN(CC(=O)O)CC1)NC(=O)CCC(=O)NCCCOCCOCCOCCCN*; X19 = O=C(O)CN1CCN(CC(=O)O)CCN(CC(=O)N2CCN(Cc3cc(C[*:1])cc(C[*:2])c3)CC2)CCN(CC(=O)O)CC1; X3 = O=C(O)CN1CCN(CC(=O)O)CCN(CC(=O)NCCCOCCOCCOCCCN*)CCN(CC(=O)O)CC1; NH(1-deoxy-D-glucityl) = OC[C@@H](O)[C@@H](O)[C@H](O)[C@@H](O)CN*; DOTA = O=C(O)CN1CCN(CC(=O)O)CCN(CC(=O)*)CCN(CC(=O)O)CC1; Trp(5-Cl) = N[C@@H](Cc1c[nH]c2ccc(Cl)cc12)C(=O)O; Pyridine(2,6-diCH2) = c1cc(C[*:1])nc(C[*:2])c1; Pro(4R-NH2) = N[C@H]1CN[C@H](C(=O)O)C1; mXylylene = c1cc(C[*:1])cc(C[*:2])c1; Bta = N[C@@H](Cc1csc2ccccc12)C(=O)O; Glutaryl = O=C(CCCC(=O)[*:2])[*:1]; Hydrocinnamoyl = O=C(CCc1ccccc1)*; Ser(ΨH,HPro) = O=C(O)[C@@H]1COCN1; X7 = c1cc(CSCCN[*:2])cc(C[*:1])c1; Hyp = O=C(O)[C@@H]1C[C@@H](O)CN1; X1 = O=C(CN1CCC(N[*:1])CC1)[*:2]; NMeE = CN[C@@H](CCC(=O)O)C(=O)O; Suc = O=C(CCC(=O)[*:2])[*:1]; Dab = NCC[C@H](N)C(=O)O; Thp = NC1(C(=O)O)CCOCC1; Aib = CC(C)(N)C(=O)O; ξP = O=C(O)C1CCCN1

These molecules were tested against T1, GIPR (CHO-K1-hGIPR cells) (Homo sapiens, UniProt P48546) (assay: FACS binding assay). Settings: competition with 20 nM GIP-057, 4° C. for 1 hour, read-out: pIC50 Category (converted).
T1 construct: host or cells: CHO-K1
T1 sequence (P48546 22-466): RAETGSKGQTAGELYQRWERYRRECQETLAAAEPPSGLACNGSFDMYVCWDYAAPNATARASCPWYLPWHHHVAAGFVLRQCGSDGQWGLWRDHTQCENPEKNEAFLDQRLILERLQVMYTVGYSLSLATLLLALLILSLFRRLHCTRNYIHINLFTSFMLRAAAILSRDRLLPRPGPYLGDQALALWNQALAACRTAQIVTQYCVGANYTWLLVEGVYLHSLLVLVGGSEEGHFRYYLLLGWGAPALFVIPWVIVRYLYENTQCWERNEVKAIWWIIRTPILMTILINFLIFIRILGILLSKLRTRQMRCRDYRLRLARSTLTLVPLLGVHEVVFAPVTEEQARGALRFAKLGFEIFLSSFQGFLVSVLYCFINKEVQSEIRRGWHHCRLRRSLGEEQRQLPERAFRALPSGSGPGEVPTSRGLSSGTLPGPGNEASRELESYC
Outline: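 CHO-K1 cells expressing human GIPR, washed in PBS/1% FCS, then stained with 1 μg/mL APC-streptavidin for 30 min on ice.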
With `CC[C@H](C)[C@@H]1NC(=O)[C@@H](NC(=O)[C@H](Cc2c[nH]c3ccccc23)NC(=O)[C@H](CC(=O)O)NC(=O)[C@@H](CC(C)C)NC(=O)[C@H](CCC(=O)O)NC(=O)C2CCCN2C(=O)[C@H](Cc2c[nH]c3ccc(Cl)cc23)NC(=O)CCC(=O)NCCCOCCOCCOCCCNC(=O)CN2CCN(CC(=O)O)CCN(CC(=O)O)CCN(CC(=O)O)CC2)CSCc2cccc(c2)CSCCNC(=O)C(C)(C)NC(=O)[C@H](CC(C)C)NC1=O` (stereo partly drawn) [GIP-306, DOTA-Ttds-5Clw-Pro-Glu-leu-Asp-Trp-[Cys(3MeBn)-Ile-Leu-Aib-AET]] ({X3-Suc}-[Trp(5-Cl)][ξP]E[dL]DWCIL[Aib]; linker 7-C via X7) the IC50 was > 1000 nM.

Same assay, conditions: competition with 20 nM GIP-057, 4° C., 1 hour, read-out: pIC50 Category (converted)
Work on `CC[C@H](C)[C@@H]1NC(=O)[C@H](CC(C)C)NC(=O)C2(CCOCC2)NC(=O)[C@@H](NC(=O)[C@@H](CC(C)C)NC(=O)[C@H](CCC(=O)O)NC(=O)[C@@H]2C[C@@H](O)CN2C(=O)[C@H](Cc2c[nH]c3ccc(Cl)cc23)NC(=O)[C@H](Cc2c[nH]c3ccccc23)NC(=O)[C@H](CC(=O)O)NC(C)=O)CSCc2cc(cc(CN3CCN(C(=O)CN4CCN(CC(=O)O)CCN(CC(=O)O)CCN(CC(=O)O)CC4)CC3)c2)CSC[C@@H](C(N)=O)NC1=O` [GIP-145, Ac-Asp-Trp-5Clw-Hyp-Glu-leu-[Cys(tMeBn(DOTA-PP))-Thp-Leu-Ile-Cys]-NH2] (Ac-DW[Trp(5-Cl)][Hyp]E[dL]C[Thp]LIC-NH2; linker 7-11 via X19) yielded an IC50 of 10 to 79.4 nM.
For `CC[C@H](C)[C@@H]1NC(=O)[C@H](CC(C)C)NC(=O)C(C)(C)NC(=O)[C@@H](NC(=O)[C@H](CC(C)C)NC(=O)[C@H](CCC(=O)O)NC(=O)[C@@H]2CCCN2C(=O)[C@H](Cc2csc3ccccc23)NC(=O)[C@H](Cc2c[nH]c3ccccc23)NC(=O)[C@H](CC(=O)O)NC(C)=O)CSCc2cccc(c2)CSC[C@@H](C(=O)NCCCOCCOCCOCCCNC(=O)CCC(=O)N[C@@H](CCCCNC(=O)CN2CCN(CC(=O)O)CCN(CC(=O)O)CCN(CC(=O)O)CC2)C(N)=O)NC1=O` [GIP-075, Ac-Asp-Trp-Bta-Pro-Glu-Leu-[Cys(3MeBn)-Aib-Leu-Ile-Cys]-Ttds-Lys(DOTA)-NH2] (Ac-DW[Bta]PELC[Aib]LIC-X5; linker 7-11 via mXylylene), the IC50 was < 10 nM.
With `CC[C@H](C)[C@@H]1NC(=O)[C@H](CC(C)C)NC(=O)C2(CCOCC2)NC(=O)[C@@H](NC(=O)[C@@H](CC(C)C)NC(=O)[C@H](CCC(=O)O)NC(=O)[C@@H]2COCN2C(=O)[C@H](Cc2c[nH]c3ccc(Cl)cc23)NC(=O)[C@H](Cc2c[nH]c3ccccc23)NC(=O)[C@H](CC(=O)O)NC(C)=O)CSCc2cccc(n2)CSC[C@@H](C(N)=O)NC1=O` [GIP-216, Ac-Asp-Trp-5Clw-Oxa-Glu-leu-[Cys(2Lut)-Thp-Leu-Ile-Cys]-NH2] (Ac-DW[Trp(5-Cl)][Ser(ΨH,HPro)]E[dL]C[Thp]LIC-NH2; linker 7-11 via Pyridine(2,6-diCH2)) the IC50 was < 10 nM.
With `CC[C@H](C)[C@@H]1NC(=O)[C@H](CC(C)C)NC(=O)[C@H](CCNC(=O)CN2CCN(CC(=O)O)CCN(CC(=O)O)CCN(CC(=O)O)CC2)NC(=O)[C@@H](NC(=O)[C@@H](CC(C)C)NC(=O)[C@H](CCC(=O)O)NC(=O)[C@@H]2C[C@@H](N)CN2C(=O)[C@H](Cc2c[nH]c3ccc(Cl)cc23)NC(=O)[C@H](Cc2c[nH]c3ccccc23)NC(=O)[C@H](CC(=O)O)NC(=O)CCCC(=O)NC[C@H](O)[C@@H](O)[C@H](O)[C@H](O)CO)CSCc2cccc(n2)CSC[C@@H](C(=O)NC2CCN(CC(=O)N[C@H](CCC(=O)NC[C@H](O)[C@@H](O)[C@H](O)[C@H](O)CO)C(N)=O)CC2)NC1=O` [GIP-026, AGLU-Glutar-Asp-Trp-5Clw-Tap-Glu-leu-[Cys(2Lut)-Dab(DOTA)-Leu-Ile-Cys]-APAc-glu(AGLU)-NH2] ({NH(1-deoxy-D-glucityl)-Glutaryl}-DW[Trp(5-Cl)][Pro(4R-NH2)]E[dL]C[Dab](DOTA)LIC[X1][dE](NH(1-deoxy-D-glucityl))-NH2; linker 7-11 via Pyridine(2,6-diCH2)) the IC50 was < 10 nM.
For `CC[C@H](C)[C@@H]1NC(=O)[C@H](CC(C)C)NC(=O)C2(CCOCC2)NC(=O)[C@@H](NC(=O)[C@H](CC(C)C)NC(=O)[C@H](CCC(=O)O)N(C)C(=O)[C@@H]2C[C@@H](O)CN2C(=O)[C@H](Cc2c[nH]c3ccc(Cl)cc23)NC(=O)[C@H](Cc2c[nH]c3ccccc23)NC(=O)[C@H](CC(=O)O)NC(C)=O)CSCc2cccc(n2)CSC[C@@H](C(N)=O)NC1=O` [GIP-217, Ac-Asp-Trp-5Clw-Hyp-Nme-Leu-[Cys(2Lut)-Thp-Leu-Ile-Cys]-NH2] (Ac-DW[Trp(5-Cl)][Hyp][NMeE]LC[Thp]LIC-NH2; linker 7-11 via Pyridine(2,6-diCH2)), the IC50 was < 10 nM.
`CC[C@H](C)[C@@H]1NC(=O)[C@H](CC(C)C)NC(=O)C(C)(C)NC(=O)[C@@H](NC(=O)[C@@H](CC(C)C)NC(=O)[C@H](CCC(=O)O)NC(=O)[C@@H]2CCCN2C(=O)[C@H](Cc2c[nH]c3ccccc23)NC(=O)[C@H](Cc2c[nH]c3ccccc23)NC(=O)[C@H](CC(=O)O)NC(=O)CCc2ccccc2)CSCc2cccc(c2)CSC[C@@H](C(=O)NCCCOCCOCCOCCCNC(=O)CCC(=O)N[C@@H](CCCCNC(=O)CN2CCN(CC(=O)O)CCN(CC(=O)O)CCN(CC(=O)O)CC2)C(N)=O)NC1=O` [GIP-135, Php-Asp-Trp-Trp-Pro-Glu-leu-[Cys(3MeBn)-Aib-Leu-Ile-Cys]-Ttds-Lys(DOTA)-NH2] (Hydrocinnamoyl-DWWPE[dL]C[Aib]LIC-X5; linker 7-11 via mXylylene) gave an IC50 of 10 to 79.4 nM.
